This experiment relates to Utrophin A promoter linked to a luciferase reporter gene in mdx mouse H2K cells. Nature of the experiment: Luciferase reporter assay (murine H2K cells). Type of experiment: cell-based. Conditions: luciferase level, H2K/mdx/Utro A reporter cells, final concentration of 10 μM, 48 hrs. How it is done: The cell line used for the screen is an immortalized mdx mouse H2K cell line that has been stably transfected with a plasmid containing fragment of the Utrophin A promoter including the first untranslated exon linked to a luciferase reporter gene (see FIG. 1).
Under conditions of low temperature and interferon containing media, the cells remain as myoblasts. These are plated into 96 well plates and cultured in the presence of compound for three days. The level of luciferase is then determined by cell lysis and reading of the light output from the expressed luciferase gene utilising a plate luminometer.
The H2K/mdx/Utro A reporter cell line was passaged twice a week until ≦30% confluent. The cells were grown at 33° C. in the presence of 10% CO2.
To remove the myoblasts for platting, they were incubated with Trypsin/EDTA until the monolayer started to detach.
• DMEM Gibco 41966 • 20% FCS • 1% Pen/Strep • 1% glutamine • 10 mls Chick embryo extract • Interferon (1276 905 Roche) Add fresh 10 μl/50 mls medium
The H2K/mdx/Utro A reporter cell line cells were plated out into 96 well plates (Falcon 353296, white opaque) at a density of approximately 5000 cells/well in 190 μl normal growth medium. The plates were then incubated at 33° C. in the presence of 10% CO2 for 24 hrs.
Compounds were dosed by adding 10 μl of diluted compound to each well giving a final concentration of 10 μM. The plates were then incubated for a further 48 hrs.
Cells were then lysed in situ following the manufacture's protocols (Promega Steady-Glo Luciferase Assay System (E2520), then counted for 10 seconds using a plate luminometer (Victor1420).
Compounds for screening were stored at −20° C. as 10 mM stocks in 100% DMSO until required.

Structures are written as SMILES.

Consider `CC(C)C(=O)Nc1ccc2cnn(-c3ccc4ccccc4c3)c2c1` [Example 1, N-(1-(naphthalen-2-yl)-1H-indazol-6-yl)isobutyramide], for which the Activity entry is recorded as “+ (Up to 200% relative to control)”.

Turning to `CC(C)C(=O)Nc1ccc2cn(-c3ccc4ccccc4c3)nc2c1` [Example 2, N-(2-(naphthalen-2-yl)-2H-indazol-6-yl)isobutyramide], the Activity entry was “++++ (Above 401% relative to control)”. On to `CCS(=O)(=O)c1ccc2cn(-c3ccc(Cl)cc3)nc2c1` [Example 3, 2-(4-chlorophenyl)-6-(ethylsulfonyl)-2H-indazole], for which the Activity result is “++ (Between 201% and 300% relative to control)”. In the case of `CCS(=O)(=O)c1ccc2nn(-c3ccc4ccccc4c3)nc2c1` [Example 4, 5-(ethylsulfonyl)-2-(naphthalen-2′-yl)-2H-benzo[d][1,2,3]triazole] it was “++ (Between 201% and 300% relative to control)”.

The values above are taken from US20120149741A1, “TREATMENT OF DUCHENNE MUSCULAR DYSTROPHY” (Biomarin IGA Limited, priority 2007, published 2012).
